Experimental data from paper PMC11968506, “Toxicokinetics and analytical toxicology of the phenmetrazine-derived new psychoactive substance 3,4-methylenedioxyphenmetrazine studied by means of in vitro systems” (Archives of Toxicology, 2025).

What was measured:
[1] = target: T1, CYP2D6 (Homo sapiens, UniProt P10635); assay: Monooxygenase mapping (ten human cDNA-expressed CYP isoforms and FMO3); type: in vitro ADME; parameters: Then, pHLM (0.4 mg microsomal protein/mL) was added to each group except the negative control; tissue Discovery Life Sciences; host or cells: pooled human liver microsomes, 25 donors; settings: MDPM 25 µM, CYP 50 pmol/mL each or FMO3 0.25 mg protein/mL, 90 and 270 min
T1 sequence (P10635 whole entry, canonical isoform): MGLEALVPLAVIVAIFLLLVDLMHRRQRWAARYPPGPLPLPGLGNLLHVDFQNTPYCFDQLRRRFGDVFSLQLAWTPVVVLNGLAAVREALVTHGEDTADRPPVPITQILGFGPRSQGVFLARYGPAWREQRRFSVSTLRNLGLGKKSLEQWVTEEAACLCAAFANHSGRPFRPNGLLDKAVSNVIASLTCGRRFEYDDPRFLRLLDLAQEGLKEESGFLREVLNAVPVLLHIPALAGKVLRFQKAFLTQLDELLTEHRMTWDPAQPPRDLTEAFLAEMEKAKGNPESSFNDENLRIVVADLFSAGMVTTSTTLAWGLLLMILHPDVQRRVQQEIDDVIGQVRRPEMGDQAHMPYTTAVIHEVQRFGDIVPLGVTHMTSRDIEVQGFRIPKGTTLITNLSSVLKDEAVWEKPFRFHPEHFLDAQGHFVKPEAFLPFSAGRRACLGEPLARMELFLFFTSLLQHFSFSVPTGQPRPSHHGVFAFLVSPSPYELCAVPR
Procedure: As described elsewhere (Wagmann et al. [2016]) and with minor modifications, MDPM (25 µM) was incubated with 2.5 mM isocitrate, 0.8 U/mL isocitrate dehydrogenase, 100 U/mL superoxide dismutase, 0.6 mM NADP^+, 2.5 mM Mg^2+ and CYP1A2, CYP2A6, CYP2B6, CYP2C8, CYP2C9, CYP2C19, CYP2D6, CYP2E1, CYP3A4, CYP3A5 (50 pmol/mL each), or FMO3 (0.25 mg protein/mL) for 90 and 270 min at 37 °C. For incubations with CYP2A6 or CYP2C9, phosphate buffer was replaced with 90 mM Tris buffer, according to the manufacturer’s guideline. Thirty µL aliquots were taken at both timepoints. The reaction was stopped using 20 µL acetonitrile (− 20 °C) with 2.5 µM trimipramine-d3 as an internal standard. All incubations were done in duplicates and concentrations are final. […] Negative control samples without enzymes and blank samples without substrate were incubated to identify not metabolically formed compounds and to confirm the absence of interfering compounds.

[2] = In vitro plasma protein binding (ultrafiltration, Centrifree); type: in vitro ADME; settings: 30 min at 37 °C, triplicate
Procedure: PPB of MDPM was investigated based on published procedures with minor adjustments (Gampfer et al. [2020]), (Mardal et al. [2016]). A volume of 450 µL fresh human blood plasma was spiked with 50 µL of a 5 µM methanolic solution of MDPM. The mixture was incubated for 30 min at 37 °C. Plasma aliquots of 100 µL and 400 µL were transferred to a new reaction tube (global approach, GA) and onto two-chambered Centrifree devices from Merck (Darmstadt, Germany), respectively. The Centrifree devices were centrifuged for 40 min and 1600×g to obtain 100 µL of ultrafiltrate (UF). UF and GA were precipitated using 50 µL acetonitrile (− 20 °C). The mixture was vortexed, cooled for 30 min at − 20 °C, and centrifuged for 3 min at 18,407×g. […] Experiments were done in triplicate. Fraction unbound (fu) and PPB was determined by comparing the area ratios of MDPM and trimipramine-d3 in the UF and GA using the following equations:1 fu=peak area ratioMDPMUF/ISUF/peak area ratioMDPMGA/ISGA 2 PPB[%]=1-fu∗100

[3] = target: CYP2C9 (Homo sapiens, UniProt P11712); assay: CYP inhibition cocktail assay in pHLM, CYP2C9 (diclofenac); settings: inhibitor 20 µM
Sequence of CYP2C9 (P11712 whole entry): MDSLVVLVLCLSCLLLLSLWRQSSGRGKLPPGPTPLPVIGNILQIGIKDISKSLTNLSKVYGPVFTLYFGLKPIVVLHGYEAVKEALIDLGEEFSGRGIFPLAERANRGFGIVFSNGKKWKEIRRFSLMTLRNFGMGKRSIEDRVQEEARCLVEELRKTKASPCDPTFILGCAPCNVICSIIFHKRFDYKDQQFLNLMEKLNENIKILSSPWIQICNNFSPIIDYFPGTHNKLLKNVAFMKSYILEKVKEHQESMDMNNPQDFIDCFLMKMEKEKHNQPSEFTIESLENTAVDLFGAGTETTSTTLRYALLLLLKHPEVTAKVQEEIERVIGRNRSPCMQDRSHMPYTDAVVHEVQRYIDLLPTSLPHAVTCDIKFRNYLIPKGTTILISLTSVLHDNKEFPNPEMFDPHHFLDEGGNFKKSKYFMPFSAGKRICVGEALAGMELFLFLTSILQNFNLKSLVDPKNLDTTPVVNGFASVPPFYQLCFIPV
Procedure: (§1) A modified dual-cocktail based method (Dinger et al. [2014b]) was used. Substrate cocktail A consisted of 8.9 µM dextromethorphan (CYP2D6), 86 µM testosterone (CYP3A4), 3.5 µM diclofenac (CYP2C9), and 12 µM phenacetin (CYP1A2). Substrate cocktail B included 30 µM bupropion (CYP2B6), 2 µM amodiaquine (CYP2C8) and 21 µM omeprazole (CYP2C19). Substrate concentrations were near their respective Michaelis–Menten constant (Km) values (Dinger et al. [2014a]) and all concentrations are final. Enzyme inhibition was investigated using a positive control, a test group, a control group, an interference group, and a negative control. In the test group, specific inhibitors were replaced by MDPM (20 µM). Instead of inhibitors, phosphate buffer was used in the control group. Enzymes were replaced with phosphate buffer in the negative control group. The interference group was incubated like the control group, but the reaction was stopped with 20 µM MDPM in acetonitrile, also containing 2.5 µM trimipramine-d3. All groups were incubated with a NADPH-regenerating system, consisting of 5 mM isocitrate, 2 U/mL isocitrate dehydrogenase, 5 mM Mg^2+, and 1.2 mM NADP^+. Further, substrate cocktail A or B, 90 mM phosphate buffer (pH 7.4), and 200 U/mL superoxide dismutase were added to each group. […] All groups were preincubated for 10 min at 37 °C. Then, pHLM (0.4 mg microsomal protein/mL) was added to each group except the negative control. Incubations were done for 15 min at 37 °C. Therefore, 50 µL of acetonitrile (− 20 °C) containing 2.5 µM trimipramine-d3 as internal standard was added. Incubations were done in triplicates and organic solvent in the incubation mixture was below 1% (Chauret et al. [1998]). Afterwards the samples were vortexed and centrifuged for 2 min at 18,407×g. 70 µL of the supernatant were transferred to autosampler vials and 10 µL were injected onto the LC-HRMS/MS system. Enzyme inhibition was evaluated by metabolite formation. […] The following settings were used: unpaired; one-tailed; significance level, 0.05; confidence intervals, 99%.

[4] = target: T1, CYP2D6; assay: CYP inhibition cocktail assay in pHLM, CYP2D6 (dextromethorphan)
Procedure: as §1

CC1NCCOC1c1ccc2c(c1)OCO2 (stereo not shown) [MDPM, 2-(1,3-benzodioxol-5-yl)-3-methylmorpholine]
isozymes forming the demethylenyl metabolite (O-demethylenation of MDPM) [1]: exclusively by CYP2D6 | fraction unbound at 30 min, 0.5 µM ([2]; fresh human blood plasma, read-out: plasma protein binding (PPB) (converted)): 0.68 | plasma protein binding (PPB) ([2]; human plasma): 32% | CYP2C9 metabolite formation ([3]; diclofenac 3.5 µM, pHLM 0.4 mg/mL, 15 min, control without inhibitor = 100%): 115% | inhibition of CYP2C9 ([3]; diclofenac, pHLM, t-test versus control): no significant inhibition | inhibition at 15 min, 20 µM ([4]; human, pH 7.4): 77% | CYP2D6 metabolite formation ([4]; inhibitor 20 µM, dextromethorphan 8.9 µM, pHLM 0.4 mg/mL, 15 min, control without inhibitor = 100%): 23%
